US20170094972A1, “Compounds and Compositions Having Knock-Down Activity Against Insect Pests” (priority 2015, published 2017)
Where two headings read alike, the source gives them in different places.

Assays:
Type in all cases: in vivo
[1] = tested on: Anopheles stephensi; experiment: 6 well plate test, knockdown after 1 hour and mortality after 24 and 48 hours; set-up: KD: unit not given here; conditions: for KD: after 1 hour
Experimental: The individual wells of six (6) well tissue culture plates were treated with […] of an ethanol solution containing a test compound at a defined concentration. Once the deposits were dry, ten non-blood fed adult female Anopheles stephensi (between two to five day old) were added to each well, and sustained with a 10% sucrose solution in a cotton wool plug. Assessment of the knockdown after 1 hour (Tables B1-B10), and mortality after 24 and 48 hours (Tables B1-B4) was carried out.
(§1) In case of multiple tests, the mean value is reported.

[2] = tested on: female mosquitoes; experiment: Tunnel study based on WHOPES tunnel tests with Hemotek membrane feeding device; conditions: for mortality at 10 mg/m2: 24 h
Experimental: Based on the “WHOPES tunnel tests” (described at http://apps.who.int/iris/bitstream/10665/80270/1/9789241505277_eng.pdf), except that live guniea pig baits were replaced with a Hemotek membrane feeding device, filled with blood and kept constant at 37° C. to mimic a human host. All tests were done under standardised laboratory controlled conditions (27° C.+2° C. under subdued light). The tunnel apparatus was a 60×30×30 cm glass case open at each end and the floor was lined with wet blue roll in order to maintain humidity. A 30×30×30 cm cage, covered in untreated netting, was placed at the release end. The test nets were cut to 25×25 cm squares and fitted into cardboard frames that allow a 20×20 cm area to be exposed. Nine holes, 1 cm in diameter, were made in the netting in the pattern specified in the WHOPES test. The frames were then fitted into the tunnel one third of the way down its length. A Hemotek device, filled with blood and kept constant at 37° C. to mimic a human host, was placed in the smaller area of the glass tunnel behind the test netting, and the end of the tunnel closed with a netting screen. A human sat at the Hemotek end of the tunnels for the duration of the test. At the start of the test (13.30-14.00), 100 female mosquitoes (non-blood fed, aged 5-8 days) were introduced into the cage. Mosquitoes are free to fly in the tunnel but have to make contact with the piece of netting and locate the holes in it before passing through to reach the bait. After 7 hours (20.30-21.00) the mosquitoes were counted in each section of the tunnel. The number of mosquitoes knocked down and blood fed were recorded. Blood-feeding inhibition was assessed by comparing the proportion of blood-fed females (alive or dead) in treated and control tests. Four tunnels were run simultaneously each day, with one control containing untreated netting included with all runs. Three replicates were carried out per treatment.
as §1

[3] = tested on: adult female mosquitoes; experiment: Bottle assay based on CDC bottle assay
Experimental: Based on the “CDC bottle assay” (described at http://www.cdc.gov/malaria/resources/pdf/fsp/ir_manual/ir_cdc_bioassay_en.pdf) 1 ml of ethanol containing a test compound at a defined concentration was added to a 250 ml glass bottle and the bottles were placed on a rolling table to coat the inner surfaces as the solvent evaporated. Once dry, twenty five non-blood fed adult female mosquitoes of the appropriate species and strains (each three day old) were aspirated from the stock culture and gently blown into the exposure bottles. The lid of the bottle was replaced and the bottle placed upright out of direct sun light under standard culture conditions, nominally 28° C. and 60-80% relative humidity.
A stopwatch was started, and the assessment of the knock-down were made after 15 mins and 60 minutes. A mosquito was said to be knocked down if it was unable to stand, following the CDC definition. The bottles were replaced in an upright position when not being assessed.
After one hour the mosquitoes were carefully removed from the bottle with an aspirator and placed in a recovery cup. The mosquitoes were supplied with a 10% sucrose solution on a cotton wool bung, and stored under culture conditions. Assessments of the mortality were made after 24 hours and 48 hours (B15).
Each treatment was replicated a minimum of four times, with the mean knockdown or mortality recorded. In each study, a set of bottles was infested with a known insecticide susceptible strain of mosquitoes from the same genera as the resistant strains.

[4] = tested on: Aedes aegypti; experiment: 12 well plate knockdown test; conditions: 1 h, read-out: Aedes aegypti 1 hour % KD
Experimental: (§2) The individual wells of a twelve (12) well tissue culture plates were treated with 100 μl of an ethanol solution containing a test compound at a defined concentration. Once the deposits were dry, five non-blood fed adult female Aedes aegypti or Anopheles stephensi (between two to five day old) were added to each well, and sustained with a 10% sucrose solution in a cotton wool plug. Assessment of the knockdown after 1 hour was carried out. Where multiple replicates of a treatment have been undertaken, the mean of those replicates is reported.

[5] = tested on: Anopheles stephensi; experiment: 12 well plate knockdown test; conditions: 1 h, read-out: Anopheles stephensi 1 hour % KD
Experimental: as §2

[6] = Table B1, Comp. (I.3) alone 0.1 ppm
[7] = Table B2, Comp. (I.3) alone 0.5 ppm
[8] = Table B3, Comp. (I.3) alone 0.5 ppm
[9] = Table B4, Comp. (I.3) alone 0.5 ppm
[10] = Table B11, Rate 10 mg/m2, 24 hours, read-out: % Mortality

Question: Which results are given for `NC(=O)c1cnccc1C(F)(F)F` [I.3]?
Answer: 24 hr mort [1, 6]: 0.0; 48 hr mort [1, 6]: 0.0; KD [1, 6]: 23.3; 24 hr mort [1, 7]: 7.0; 48 hr mort [1, 7]: 10.0; KD [1, 7]: 60.0; 24 hr mort [1, 8]: 0.0; 48 hr mort [1, 8]: 0.0; KD [1, 8]: 73.0; 24 hr mort [1, 9]: 2.5; 48 hr mort [1, 9]: 2.5; KD [1, 9]: 17.5; knockdown after 1 hour ([1]; Table B10, Compound (I.3) alone 0.5 ppm): 0.0; mortality at 10 mg/m2 [2, 10]: 68%; mortality at 10 mg/m2 ([2]; Table B13, 10 mg/m2, read-out: % 24 hour mortality): 72.2%; mortality at 10 mg/m2 ([2]; Table B14, 10 mg/m2, read-out: % 24 hour mortality): 68%; % Blood fed ([2]; Table B11, Rate 10 mg/m2): 3%; % 1 hour KD ([2]; Table B12, 10 mg/m2): 41.24%; % Blood fed ([2]; Table B12, 10 mg/m2): 3.09%; % Through net ([2]; Table B12, 10 mg/m2): 9.28%; % Blood fed ([2]; Table B13, 10 mg/m2): 18.56%; % Through net ([2]; Table B13, 10 mg/m2): 22.68%; % Blood fed ([2]; Table B14, 10 mg/m2): 2.9%; 24 hour % mort ([3]; Table B15, rates not given): 0%; 48 hour % mort ([3]; Table B15, rates not given): 0%; % 1 hour KD ([3]; Table B15, rates not given): 86.66%; % 1 hour KD ([3]; Table B16, 10ug/bottle): 100%; % 24 hour mortality ([3]; Table B16, 10ug/bottle): 0%; pest or weed control at 0.2 ppm ([4]; Rate 0.2 PPM): 100%; pest or weed control at 2 ppm ([4]; Rate 2 PPM): 100%; pest or weed control at 20 ppm ([4]; Rate 20 PPM): 100%; pest or weed control at 200 ppm ([4]; Rate 200 PPM): 100%; pest or weed control at 0.2 ppm ([5]; Rate 0.2 PPM): 20%; pest or weed control at 2 ppm ([5]; Rate 2 PPM): 20%; pest or weed control at 20 ppm ([5]; Rate 20 PPM): 100%; pest or weed control at 200 ppm ([5]; Rate 200 PPM): 100%

Question: For `CC1(C)C(C=C(Cl)Cl)C1C(=O)OCc1cccc(Oc2ccccc2)c1` (stereo not shown) [Permethrin], which 24 hr mort ([1]; Table B1, 0.0625 ppm alone) is on record?
Answer: Its 24 hr mort is 0.0.

Question: And the 48 hr mort ([1]; Table B1, 0.0625 ppm alone)?
Answer: Its 48 hr mort is 0.0.

Question: And the KD ([1]; Table B1, 0.0625 ppm alone)?
Answer: The KD was 0.0.

Question: And the 24 hr mort ([1]; Table B1, 0.125 ppm alone)?
Answer: The 24 hr mort was 3.3.

Question: What about the 48 hr mort ([1]; Table B1, 0.125 ppm alone) of the same compound?
Answer: The 48 hr mort was 0.0.

Question: What about the KD ([1]; Table B1, 0.125 ppm alone) of the same compound?
Answer: Its KD is 0.0.

Question: And the 24 hr mort ([1]; Table B1, 0.25 ppm alone)?
Answer: Its 24 hr mort is 16.7.

Question: And the 48 hr mort ([1]; Table B1, 0.25 ppm alone)?
Answer: The 48 hr mort was 20.0.

Question: And the KD ([1]; Table B1, 0.25 ppm alone)?
Answer: Its KD is 0.0.

Question: And the 24 hr mort ([1]; Table B1, 0.5 ppm alone)?
Answer: The 24 hr mort was 23.3.

Question: And the 48 hr mort ([1]; Table B1, 0.5 ppm alone)?
Answer: The 48 hr mort was 30.0.

Question: What about the KD ([1]; Table B1, 0.5 ppm alone) of the same compound?
Answer: The KD was 0.0.

Question: And the 24 hr mort ([1]; Table B1, 1 ppm alone)?
Answer: Its 24 hr mort is 40.0.

Question: What about the 48 hr mort ([1]; Table B1, 1 ppm alone) of the same compound?
Answer: Its 48 hr mort is 46.7.

Question: What about the KD ([1]; Table B1, 1 ppm alone) of the same compound?
Answer: The KD was 10.0.

Question: What about the 24 hr mort ([1]; Table B1, 2 ppm alone) of the same compound?
Answer: Its 24 hr mort is 66.7.

Question: What about the 48 hr mort ([1]; Table B1, 2 ppm alone) of the same compound?
Answer: The 48 hr mort was 80.0.

Question: What about the KD ([1]; Table B1, 2 ppm alone) of the same compound?
Answer: The KD was 13.3.

Question: What about the 24 hr mort ([1]; Table B2, 0.0625 ppm alone) of the same compound?
Answer: The 24 hr mort was 0.0.

Question: What about the 48 hr mort ([1]; Table B2, 0.0625 ppm alone) of the same compound?
Answer: The 48 hr mort was 0.0.

Question: What about the KD ([1]; Table B2, 0.0625 ppm alone) of the same compound?
Answer: Its KD is 0.0.

Question: And the 24 hr mort ([1]; Table B2, 0.125 ppm alone)?
Answer: Its 24 hr mort is 0.0.

Question: What about the 48 hr mort ([1]; Table B2, 0.125 ppm alone) of the same compound?
Answer: The 48 hr mort was 0.0.

Question: What about the KD ([1]; Table B2, 0.125 ppm alone) of the same compound?
Answer: Its KD is 0.0.

Question: And the 24 hr mort ([1]; Table B2, 0.25 ppm alone)?
Answer: Its 24 hr mort is 10.0.

Question: And the 48 hr mort ([1]; Table B2, 0.25 ppm alone)?
Answer: Its 48 hr mort is 10.0.

Question: What about the KD ([1]; Table B2, 0.25 ppm alone) of the same compound?
Answer: Its KD is 0.0.

Question: And the 24 hr mort ([1]; Table B2, 0.5 ppm alone)?
Answer: Its 24 hr mort is 30.0.

Question: And the 48 hr mort ([1]; Table B2, 0.5 ppm alone)?
Answer: Its 48 hr mort is 50.0.

Question: And the KD ([1]; Table B2, 0.5 ppm alone)?
Answer: The KD was 0.0.

Question: What about the 24 hr mort ([1]; Table B2, 1 ppm alone) of the same compound?
Answer: The 24 hr mort was 40.0.

Question: What about the 48 hr mort ([1]; Table B2, 1 ppm alone) of the same compound?
Answer: Its 48 hr mort is 70.0.

Question: And the KD ([1]; Table B2, 1 ppm alone)?
Answer: Its KD is 0.0.

Question: And the 24 hr mort ([1]; Table B2, 2 ppm alone)?
Answer: Its 24 hr mort is 80.0.

Question: And the 48 hr mort ([1]; Table B2, 2 ppm alone)?
Answer: Its 48 hr mort is 80.0.

Question: And the KD ([1]; Table B2, 2 ppm alone)?
Answer: Its KD is 0.0.

Question: And the mortality at 10 mg/m2 [2, 10]?
Answer: Its mortality at 10 mg/m2 is 24%.

Question: What about the “% Blood fed” value ([2]; Table B11, Rate 10 mg/m2) of the same compound?
Answer: Its value is 31%.

Question: What about the “24 hour % mort” value ([3]; Table B15, rates not given) of the same compound?
Answer: The value was 0%.

Question: What about the “48 hour % mort” value ([3]; Table B15, rates not given) of the same compound?
Answer: Its value is 0%.

Question: What about the “% 1 hour KD” value ([3]; Table B15, rates not given) of the same compound?
Answer: The value was 100%.

Question: What about the “% 1 hour KD” value ([3]; Table B16, 1ug/bottle) of the same compound?
Answer: Its value is 100%.

Question: What about the “% 24 hour mortality” value ([3]; Table B16, 1ug/bottle) of the same compound?
Answer: The value was 0%.
